Earlier results as cited in US20230027739A1, “ANTIGEN-BINDING AND ANTIGEN D[…]” (Entrada Therapeutics, Inc., priority 2021, published 2023).

details: Miller et al. (1987)

Structure (SMILES) | Amino Acid SASA Values, Miller et al. (1987) [Å^2]
N=C(N)NCCC[C@H](N)C(=O)O [Arginine] | 241.0
CSCC[C@H](N)C(=O)O [Methionine] | 204.0
N[C@@H](Cc1c[nH]cn1)C(=O)O [Histidine] | 194.0
CC(C)[C@H](N)C(=O)O [Valine] | 160.0
C[C@@H](O)[C@H](N)C(=O)O [Threonine] | 146.0
NCC(=O)O [Glycine] | 85.0
N[C@@H](Cc1ccccc1)C(=O)O [Phenylalanine] | 218.0
NCCCC[C@H](N)C(=O)O [Lysine] | 211.0
O=C(O)[C@@H]1CCCN1 [Proline] | 143.0
N[C@@H](CO)C(=O)O [Serine] | 122.0
CC[C@H](C)[C@H](N)C(=O)O [Isoleucine] | 182.0
N[C@@H](Cc1ccc(O)cc1)C(=O)O [Tyrosine] | 229.0
N[C@@H](Cc1c[nH]c2ccccc12)C(=O)O [Tryptophan] | 259.0
NC(=O)C[C@H](N)C(=O)O [Asparagine] | 158.0
N[C@@H](CC(=O)O)C(=O)O [Aspartate] | 151.0
N[C@@H](CCC(=O)O)C(=O)O [Glutamate] | 183.0
N[C@@H](CS)C(=O)O [Cysteine] | 140.0
C[C@H](N)C(=O)O [Alanine] | 113.0

same assay, conditions: Rose et al. (1985)

Structure (SMILES) | Amino Acid SASA Values, Rose et al. (1985) [Å^2]
N=C(N)NCCC[C@H](N)C(=O)O [Arginine] | 256.0
CSCC[C@H](N)C(=O)O [Methionine] | 203.4
N[C@@H](Cc1c[nH]cn1)C(=O)O [Histidine] | 202.5
CC(C)[C@H](N)C(=O)O [Valine] | 164.5
C[C@@H](O)[C@H](N)C(=O)O [Threonine] | 152.5
NCC(=O)O [Glycine] | 88.1
N[C@@H](Cc1ccccc1)C(=O)O [Phenylalanine] | 222.8
NCCCC[C@H](N)C(=O)O [Lysine] | 225.8
O=C(O)[C@@H]1CCCN1 [Proline] | 146.8
N[C@@H](CO)C(=O)O [Serine] | 129.8
CC[C@H](C)[C@H](N)C(=O)O [Isoleucine] | 181.0
N[C@@H](Cc1ccc(O)cc1)C(=O)O [Tyrosine] | 236.8
N[C@@H](Cc1c[nH]c2ccccc12)C(=O)O [Tryptophan] | 266.3
NC(=O)C[C@H](N)C(=O)O [Asparagine] | 165.5
N[C@@H](CC(=O)O)C(=O)O [Aspartate] | 158.7
N[C@@H](CCC(=O)O)C(=O)O [Glutamate] | 186.2
N[C@@H](CS)C(=O)O [Cysteine] | 146.1
C[C@H](N)C(=O)O [Alanine] | 118.1

same assay, conditions: empirical values

Structure (SMILES) | Amino Acid SASA Values, Empirical [Å^2]
N=C(N)NCCC[C@H](N)C(=O)O [Arginine] | 265.0
CSCC[C@H](N)C(=O)O [Methionine] | 203.0
N[C@@H](Cc1c[nH]cn1)C(=O)O [Histidine] | 216.0
CC(C)[C@H](N)C(=O)O [Valine] | 165.0
C[C@@H](O)[C@H](N)C(=O)O [Threonine] | 163.0
NCC(=O)O [Glycine] | 97.0
N[C@@H](Cc1ccccc1)C(=O)O [Phenylalanine] | 228.0
NCCCC[C@H](N)C(=O)O [Lysine] | 230.0
O=C(O)[C@@H]1CCCN1 [Proline] | 154.0
N[C@@H](CO)C(=O)O [Serine] | 143.0
CC[C@H](C)[C@H](N)C(=O)O [Isoleucine] | 195.0
N[C@@H](Cc1ccc(O)cc1)C(=O)O [Tyrosine] | 255.0
N[C@@H](Cc1c[nH]c2ccccc12)C(=O)O [Tryptophan] | 264.0
NC(=O)C[C@H](N)C(=O)O [Asparagine] | 187.0
N[C@@H](CC(=O)O)C(=O)O [Aspartate] | 187.0
N[C@@H](CCC(=O)O)C(=O)O [Glutamate] | 214.0
N[C@@H](CS)C(=O)O [Cysteine] | 148.0
C[C@H](N)C(=O)O [Alanine] | 121.0

same assay, conditions: theoretical values as reported by Tien, et al.

Structure (SMILES) | Amino Acid SASA Values, Theoretical [Å^2]
N=C(N)NCCC[C@H](N)C(=O)O [Arginine] | 274.0
CSCC[C@H](N)C(=O)O [Methionine] | 224.0
N[C@@H](Cc1c[nH]cn1)C(=O)O [Histidine] | 224.0
CC(C)[C@H](N)C(=O)O [Valine] | 174.0
C[C@@H](O)[C@H](N)C(=O)O [Threonine] | 172.0
NCC(=O)O [Glycine] | 104.0
N[C@@H](Cc1ccccc1)C(=O)O [Phenylalanine] | 240.0
NCCCC[C@H](N)C(=O)O [Lysine] | 236.0
N[C@@H](CO)C(=O)O [Serine] | 155.0
CC[C@H](C)[C@H](N)C(=O)O [Isoleucine] | 197.0
N[C@@H](Cc1ccc(O)cc1)C(=O)O [Tyrosine] | 263.0
N[C@@H](Cc1c[nH]c2ccccc12)C(=O)O [Tryptophan] | 285.0
NC(=O)C[C@H](N)C(=O)O [Asparagine] | 195.0
N[C@@H](CC(=O)O)C(=O)O [Aspartate] | 193.0
N[C@@H](CS)C(=O)O [Cysteine] | 167.0
C[C@H](N)C(=O)O [Alanine] | 129.0

details: hydrophobicity scale of Eisenberg and Weiss

Structure (SMILES) | Amino Acid Hydrophobicity, Eisenberg and Weiss
N[C@@H](Cc1c[nH]c2ccccc12)C(=O)O [Trp] | 0.37
CSCC[C@H](N)C(=O)O [Met] | 0.26
N[C@@H](CC(=O)O)C(=O)O [Asp] | −0.72
NC(=O)C[C@H](N)C(=O)O [Asn] | −0.64
N[C@@H](CO)C(=O)O [Ser] | −0.26
N[C@@H](Cc1ccc(O)cc1)C(=O)O [Tyr] | 0.02
N[C@@H](CCC(=O)O)C(=O)O [Glu] | −0.62
N=C(N)NCCC[C@H](N)C(=O)O [Arg] | −1.80
N[C@@H](CS)C(=O)O [Cys] | 0.04
C[C@H](N)C(=O)O [Ala] | 0.25
CC(C)[C@H](N)C(=O)O [Val] | 0.54
N[C@@H](Cc1c[nH]cn1)C(=O)O [His] | −0.40
C[C@@H](O)[C@H](N)C(=O)O [Thr] | −0.18
N[C@@H](Cc1ccccc1)C(=O)O [Phe] | 0.61
NCCCC[C@H](N)C(=O)O [Lys] | −1.10

same assay, conditions: hydrophobicity scale of Engleman et al.

Structure (SMILES) | Amino Acid Hydrophobicity, Engleman et al.
N[C@@H](Cc1c[nH]c2ccccc12)C(=O)O [Trp] | 1.9
CSCC[C@H](N)C(=O)O [Met] | 3.4
N[C@@H](CC(=O)O)C(=O)O [Asp] | −9.2
NC(=O)C[C@H](N)C(=O)O [Asn] | −4.8
N[C@@H](CO)C(=O)O [Ser] | 0.6
N[C@@H](Cc1ccc(O)cc1)C(=O)O [Tyr] | −0.7
N[C@@H](CCC(=O)O)C(=O)O [Glu] | −8.2
N=C(N)NCCC[C@H](N)C(=O)O [Arg] | −12.3
N[C@@H](CS)C(=O)O [Cys] | 2.0
C[C@H](N)C(=O)O [Ala] | 1.6
CC(C)[C@H](N)C(=O)O [Val] | 2.6
N[C@@H](Cc1c[nH]cn1)C(=O)O [His] | −3.0
C[C@@H](O)[C@H](N)C(=O)O [Thr] | 1.2
N[C@@H](Cc1ccccc1)C(=O)O [Phe] | 3.7
NCCCC[C@H](N)C(=O)O [Lys] | −8.8

same assay, conditions: hydrophobicity scale of Hoop and Woods

Structure (SMILES) | Amino Acid Hydrophobicity, Hoop and Woods
N[C@@H](Cc1c[nH]c2ccccc12)C(=O)O [Trp] | −3.4
CSCC[C@H](N)C(=O)O [Met] | −1.3
N[C@@H](CC(=O)O)C(=O)O [Asp] | 3.0
NC(=O)C[C@H](N)C(=O)O [Asn] | 0.2
N[C@@H](CO)C(=O)O [Ser] | 0.3
N[C@@H](Cc1ccc(O)cc1)C(=O)O [Tyr] | −2.3
N[C@@H](CCC(=O)O)C(=O)O [Glu] | 3.0
N=C(N)NCCC[C@H](N)C(=O)O [Arg] | 3.0
N[C@@H](CS)C(=O)O [Cys] | −1.0
C[C@H](N)C(=O)O [Ala] | −0.5
CC(C)[C@H](N)C(=O)O [Val] | −1.5
N[C@@H](Cc1c[nH]cn1)C(=O)O [His] | −0.5
C[C@@H](O)[C@H](N)C(=O)O [Thr] | −0.4
N[C@@H](Cc1ccccc1)C(=O)O [Phe] | −2.5
NCCCC[C@H](N)C(=O)O [Lys] | 3.0

same assay, conditions: hydrophobicity scale of Janin

Structure (SMILES) | Amino Acid Hydrophobicity, Janin
N[C@@H](Cc1c[nH]c2ccccc12)C(=O)O [Trp] | 0.3
CSCC[C@H](N)C(=O)O [Met] | 0.4
N[C@@H](CC(=O)O)C(=O)O [Asp] | −0.6
NC(=O)C[C@H](N)C(=O)O [Asn] | −0.5
N[C@@H](CO)C(=O)O [Ser] | −0.1
N[C@@H](Cc1ccc(O)cc1)C(=O)O [Tyr] | −0.4
N[C@@H](CCC(=O)O)C(=O)O [Glu] | −0.7
N=C(N)NCCC[C@H](N)C(=O)O [Arg] | −1.4
N[C@@H](CS)C(=O)O [Cys] | 0.9
C[C@H](N)C(=O)O [Ala] | 0.3
CC(C)[C@H](N)C(=O)O [Val] | 0.6
N[C@@H](Cc1c[nH]cn1)C(=O)O [His] | −0.1
C[C@@H](O)[C@H](N)C(=O)O [Thr] | −0.2
N[C@@H](Cc1ccccc1)C(=O)O [Phe] | 0.5
NCCCC[C@H](N)C(=O)O [Lys] | −1.8

same assay, conditions: hydrophobicity scale of Kyrie and Doolittle

Structure (SMILES) | Amino Acid Hydrophobicity, Kyrie and Doolittle
N[C@@H](Cc1c[nH]c2ccccc12)C(=O)O [Trp] | −0.9
CSCC[C@H](N)C(=O)O [Met] | 1.9
N[C@@H](CC(=O)O)C(=O)O [Asp] | −3.5
NC(=O)C[C@H](N)C(=O)O [Asn] | −3.5
N[C@@H](CO)C(=O)O [Ser] | −0.8
N[C@@H](Cc1ccc(O)cc1)C(=O)O [Tyr] | −1.3
N[C@@H](CCC(=O)O)C(=O)O [Glu] | −3.5
N=C(N)NCCC[C@H](N)C(=O)O [Arg] | −4.5
N[C@@H](CS)C(=O)O [Cys] | 2.5
C[C@H](N)C(=O)O [Ala] | 1.8
CC(C)[C@H](N)C(=O)O [Val] | 4.2
N[C@@H](Cc1c[nH]cn1)C(=O)O [His] | −3.2
C[C@@H](O)[C@H](N)C(=O)O [Thr] | −0.7
N[C@@H](Cc1ccccc1)C(=O)O [Phe] | 2.8
NCCCC[C@H](N)C(=O)O [Lys] | −3.9
